This is an account of results in patent US20200069679A1, “NINTEDANIB FOR USE IN METHODS FOR THE TREATMENT OF INTERSTITIAL LUNG DISEASES BY COADMINISTRATION WITH OLADATEROL” (Boehringer Ingelheim International GmbH, priority 2016, published 2020).

The subject of this assay is TGF-β induced ET-1 release in cultured human lung fibroblasts (IPF-HLF). Put plainly: TGF-β induced ET-1 release in cultured human lung fibroblasts from IPF patients (ELISA of supernatant). The class given is cell-based. Particulars: IPF-HLF stimulated with TGF-β for 48 h, n=6 incubations, normalized to unstimulated (=100% inhibition) and TGF-β-stimulated (=0% inhibition) ET-1 levels. How it is done:
The principle of the assay is the incubation of IPF-HLF with transforming growth factor beta (TGF-β) for 48 h. In the cell culture supernatant the concentration of the pro-fibrotic mediator endothelin-1 (ET-1) was determined by enzyme linked immune sorbent assay.
HLFs from 5 different patients with idiopathic pulmonary fibrosis (IPF) were used to do repeated measurements. For the control groups without TGF-β stimulation, data sets from 11 incubations were included and for TGF-β-stimulated fibroblasts data sets from 12 incubations were included. For all olodaterol and/or nintedanib-treated groups, n=6 incubations were conducted. The experiments were conducted in the presence of nintedanib at 30 nM concentration and/or olodaterol at 1 pM (FIG. 1), 10 pM (FIG. 2) and 100 pM (FIG. 3) concentrations, respectively.
(In general: ELISA stands for enzyme-linked immunosorbent assay.)

Turning to `COc1ccc(CC(C)(C)NC[C@H](O)c2cc(O)cc3c2OCC(=O)N3)cc1` [olodaterol], the “reduction of ET-1 release” value (olodaterol at 1-100 pM) is given as 1%-47%.

`COC(=O)c1ccc2c(c1)NC(=O)/C2=C(\Nc1ccc(N(C)C(=O)CN2CCN(C)CC2)cc1)c1ccccc1` [nintedanib]: the “reduction of ET-1 release” value (nintedanib at 30 nM) is reported as 7%.
